From ChEMBL document CHEMBL2016558, “CB 1/2 dual agonists with 3-carbamoyl 2-pyridone derivatives as antipruritics: reduction of CNS side effects by introducing polar functional groups” (Bioorg Med Chem Lett, 2012)

How the values were obtained:
Mus musculus [1] = assay: Toxicity in ICR mouse assessed as CB1-mediated spasm, rigor at 0.1 to 1 mg/kg, iv after 15 mins; format: organism-based; set-up: dose 0.1-1 mg/kg, route intravenous; settings: in vivo, 0.25 h
Mus musculus [2] = assay: Toxicity in ICR mouse assessed as CB1-induced catalepsy at 0.1 to 1 mg/kg, iv after 15 mins; format: organism-based; set-up: dose 0.1-1 mg/kg, route intravenous; settings: in vivo, 0.25 h
Mus musculus [3] = assay: Toxicity in ICR mouse assessed as CB1-mediated stretching the without moving at 0.1 to 1 mg/kg, iv after 15 mins; format: organism-based; set-up: dose 0.1-1 mg/kg, route intravenous; settings: in vivo, 0.25 h
Mus musculus [4] = assay: Toxicity in ICR mouse assessed as CB1-mediated walking with lying on the belly at 0.1 to 1 mg/kg, iv after 15 mins; format: organism-based; set-up: dose 0.1-1 mg/kg, route intravenous; settings: in vivo, 0.25 h
Mus musculus [5] = assay: Toxicity in ICR mouse assessed as CB1-mediated moving sluggishly at 0.1 to 1 mg/kg, iv after 15 mins; format: organism-based; set-up: dose 0.1-1 mg/kg, route intravenous; settings: in vivo, 0.25 h
Cannabinoid receptor 1 = Cannabinoid receptor 1 (Homo sapiens, UniProt P21554); assay: Displacement of [3H]-CP55940 from recombinant human CB1 receptor by scatchard plot analysis
Sequence of Cannabinoid receptor 1 (P21554 whole entry): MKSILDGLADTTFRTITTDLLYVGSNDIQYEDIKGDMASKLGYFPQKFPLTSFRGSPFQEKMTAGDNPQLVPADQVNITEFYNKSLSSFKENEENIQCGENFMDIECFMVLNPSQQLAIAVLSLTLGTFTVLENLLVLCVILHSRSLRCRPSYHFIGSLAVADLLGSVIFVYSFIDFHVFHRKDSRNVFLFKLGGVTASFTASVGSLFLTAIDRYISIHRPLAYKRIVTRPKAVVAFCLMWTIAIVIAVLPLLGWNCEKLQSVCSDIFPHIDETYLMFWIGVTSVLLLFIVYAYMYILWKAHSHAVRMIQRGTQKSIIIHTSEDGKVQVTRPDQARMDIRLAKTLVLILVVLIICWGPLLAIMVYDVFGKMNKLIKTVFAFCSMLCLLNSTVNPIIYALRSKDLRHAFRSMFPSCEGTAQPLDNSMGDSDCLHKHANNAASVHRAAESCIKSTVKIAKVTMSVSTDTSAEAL

Cannabinoid receptor 2 = Cannabinoid receptor 2 (Homo sapiens, UniProt P34972); assay: Displacement of [3H]-CP55940 from recombinant human CB2 receptor by scatchard plot analysis
Sequence of Cannabinoid receptor 2 (P34972 whole entry): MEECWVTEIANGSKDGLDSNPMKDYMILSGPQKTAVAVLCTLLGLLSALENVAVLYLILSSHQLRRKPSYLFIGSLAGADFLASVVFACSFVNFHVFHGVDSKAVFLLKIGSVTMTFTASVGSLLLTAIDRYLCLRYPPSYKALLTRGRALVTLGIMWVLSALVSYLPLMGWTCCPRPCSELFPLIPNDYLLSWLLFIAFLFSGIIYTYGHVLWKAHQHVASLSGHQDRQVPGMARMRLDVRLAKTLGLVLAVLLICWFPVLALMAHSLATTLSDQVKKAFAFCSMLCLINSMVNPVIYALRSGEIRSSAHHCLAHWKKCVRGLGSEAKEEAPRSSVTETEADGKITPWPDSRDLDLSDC

[6] = Ratio of drug level in brain to plasma in rat; format: ADME; settings: read-out: BPR
Mus musculus [7] = assay: Antipruritic activity in Crj:CD1 ICR mouse pruritic model assessed as inhibition of compound 48/80-induced scratching compound topically applied on the shaved back 15 mins prior challenge measured for 30 mins relative to control; format: functional

CC(C)(NC(=O)c1cc2c(n(CC3CCCCC3)c1=O)CCCCCC2)C(=O)NCC(N)=O
Activity (Mus musculus [1]): Toxic | Activity (Mus musculus [2]): Toxic | Activity (Mus musculus [3]): Toxic | Activity (Mus musculus [4]): Toxic | Activity (Mus musculus [5]): Toxic

COC(=O)C(C)(C)NC(=O)c1cc2c(n(CC3CCCCC3)c1=O)CCCCCC2
Ki (Cannabinoid receptor 1): 1.7 nM | Ki (Cannabinoid receptor 2): 0.3 nM | Activity (Mus musculus [1]): Toxic | Activity (Mus musculus [2]): Toxic | Activity (Mus musculus [3]): Toxic | Activity (Mus musculus [4]): Toxic | Activity (Mus musculus [5]): Toxic | Kp [6]: 3.35

CN(CCO)C(=O)C(C)(C)NC(=O)c1cc2c(n(CC3CCCCC3)c1=O)CCCCCC2
Ki (Cannabinoid receptor 2): 0.6 nM | Activity (Mus musculus [1]): Toxic | Activity (Mus musculus [2]): Toxic | Activity (Mus musculus [3]): Toxic | Activity (Mus musculus [4]): Toxic | Activity (Mus musculus [5]): Toxic | Kp [6]: 0.28

CC(C)(NC(=O)c1cc2c(n(CC3CCCCC3)c1=O)CCCCCC2)C(=O)NCCCO
Ki (Cannabinoid receptor 1): 6.3 nM | Ki (Cannabinoid receptor 2): 1 nM | Activity (Mus musculus [1]): Toxic | Activity (Mus musculus [2]): Toxic | Activity (Mus musculus [3]): Toxic | Activity (Mus musculus [4]): Toxic | Activity (Mus musculus [5]): Toxic

CC(C)(NC(=O)c1cc2c(n(CC3CCCCC3)c1=O)CCCCCC2)C(=O)NCCCCCO
Ki (Cannabinoid receptor 1): 5.8 nM | Ki (Cannabinoid receptor 2): 1.2 nM | Activity (Mus musculus [1]): Toxic | Activity (Mus musculus [2]): Toxic | Activity (Mus musculus [3]): Toxic | Activity (Mus musculus [4]): Toxic | Activity (Mus musculus [5]): Toxic

CC(C)(NC(=O)c1cc2c(n(CC3CCCCC3)c1=O)CCCCCC2)C(=O)NCCOCCO
Ki (Cannabinoid receptor 1): 3.4 nM | Ki (Cannabinoid receptor 2): 0.6 nM | Activity (Mus musculus [1]): Toxic | Activity (Mus musculus [2]): Toxic | Activity (Mus musculus [3]): Toxic | Activity (Mus musculus [4]): Toxic | Activity (Mus musculus [5]): Toxic

CN(C)CCNC(=O)C(C)(C)NC(=O)c1cc2c(n(CC3CCCCC3)c1=O)CCCCCC2
Ki (Cannabinoid receptor 1): 242 nM | Ki (Cannabinoid receptor 2): 81 nM

CC(=O)NCCNC(=O)C(C)(C)NC(=O)c1cc2c(n(CC3CCCCC3)c1=O)CCCCCC2
Ki (Cannabinoid receptor 1): 4.7 nM | Ki (Cannabinoid receptor 2): 2.5 nM | Activity (Mus musculus [1]): Toxic | Activity (Mus musculus [2]): Toxic | Activity (Mus musculus [3]): Toxic | Activity (Mus musculus [4]): Toxic | Activity (Mus musculus [5]): Toxic

CC(C)(NC(=O)c1cc2c(n(CC3CCCCC3)c1=O)CCCCCC2)C(=O)NCC(=O)O
Ki (Cannabinoid receptor 1): > 5000 nM | Ki (Cannabinoid receptor 2): 2820 nM

CC(C)(NC(=O)c1cc2c(n(CC3CCCCC3)c1=O)CCCCCC2)C(=O)N1CCC(O)CC1
Ki (Cannabinoid receptor 1): 8 nM | Ki (Cannabinoid receptor 2): 1.1 nM | Activity (Mus musculus [1]): Toxic | Activity (Mus musculus [2]): Toxic | Activity (Mus musculus [3]): Toxic | Activity (Mus musculus [4]): Toxic | Activity (Mus musculus [5]): Toxic

CC(C)(NC(=O)c1cc2c(n(CC3CCCCC3)c1=O)CCCCCC2)C(=O)N1CCC(C(=O)O)CC1
Ki (Cannabinoid receptor 1): 2970 nM | Ki (Cannabinoid receptor 2): 377 nM

CC(C)(NC(=O)c1cc2c(n(CC3CCCCC3)c1=O)CCCCCC2)C(=O)N1CCC(C(N)=O)CC1
Ki (Cannabinoid receptor 1): 4.9 nM | Ki (Cannabinoid receptor 2): 3 nM | Activity (Mus musculus [1]): Toxic | Activity (Mus musculus [2]): Toxic | Activity (Mus musculus [3]): Toxic | Activity (Mus musculus [4]): Toxic | Activity (Mus musculus [5]): Toxic

CC(C)(NC(=O)c1cc2c(n(CC3CCCCC3)c1=O)CCCCCC2)C(=O)N1CCC(NS(C)(=O)=O)CC1
Activity (Mus musculus [1]): Non-toxic | Activity (Mus musculus [2]): Non-toxic | Activity (Mus musculus [3]): Non-toxic | Activity (Mus musculus [4]): Non-toxic | Activity (Mus musculus [5]): Non-toxic

CC(C)(NC(=O)c1cc2c(n(CC3CCCCC3)c1=O)CCCCCC2)C(=O)N1CCC(C(=O)NS(C)(=O)=O)CC1
Ki (Cannabinoid receptor 1): 218 nM | Ki (Cannabinoid receptor 2): 128 nM

CC(C)(NC(=O)c1cc2c(n(CC3CCCCC3)c1=O)CCCCCC2)C(=O)NN
Ki (Cannabinoid receptor 1): 30 nM | Ki (Cannabinoid receptor 2): 2.8 nM | Activity (Mus musculus [1]): Toxic | Activity (Mus musculus [2]): Toxic | Activity (Mus musculus [3]): Toxic | Activity (Mus musculus [4]): Toxic | Activity (Mus musculus [5]): Toxic

CC(C)(NC(=O)c1cc2c(n(CC3CCCCC3)c1=O)CCCCCC2)C(=O)NNS(C)(=O)=O
Ki (Cannabinoid receptor 1): 32 nM | Ki (Cannabinoid receptor 2): 7.3 nM | Activity (Mus musculus [1]): Non-toxic | Activity (Mus musculus [2]): Non-toxic | Activity (Mus musculus [3]): Non-toxic | Activity (Mus musculus [4]): Non-toxic | Activity (Mus musculus [5]): Non-toxic | Kp [6]: 0.02 | inhibition (INH) (Mus musculus [7]): 87%
